# Several values for one entry are separate records, joined by “and”; a condition that tells them apart may be missing. Equal entries are not always repeated.
# Columns and labels:
# Type in all cases: physicochemical
# [1] = Chemical and physical stability of crystalline free base on storage; conditions: crystalline form, 25° C. and 60% Relative Humidity
# [2] = Visual observation of solution clarity (light box per European Pharmacopoeia Method 2.9.20, black and white background, Tyndall beam)
# From the text: A clear solution is defined as a visually clear solution essentially free from any visible particulates that can be observed on a visual inspection. Generally, if any particulate matter is observed, the formulation is not suitable for intravenous administration and should not be utilised as occlusion of blood vessels may occur. Accordingly, in view of the qualitative nature of the visual test, the term “essentially free from any visible particulates” is usually applied when no visible particulate matter is observed.
# The visual inspection can be conducted in accordance with the method defined in European Pharmacopoeia Method 2.9.20 entitled “Particulate contamination: visible particles”. […]
# By this method the solution in the vial was visually inspected in a Verivide DCAC60 (trade mark) light cabinet using a light meter reading of 3250 lux against a matt black panel and a white panel.
# At the end of the 5 day period the pH of each sample was measured and a visual observation of each sample was made using a light box as described in European Pharmacopoeia Method 2.9.20 (above), inspecting the samples against a black and a white background. […]
# These samples were visually assessed made using a light box as described in European Pharmacopoeia Method 2.9.20 (above), inspecting the samples against a black and a white background. […] The pH was also measured. […]
# [3] = pH measurement of aqueous formulation samples; conditions: for pH after dilution: roller bed overnight; for pH Check after 6 Days / pH Check after 48 hours: Investigation 5; for pH: Investigation 6, 15 hours
# Experimental: At the end of the 5 day period the pH of each sample was measured and a visual observation of each sample was made using a light box as described in European Pharmacopoeia Method 2.9.20 (above), inspecting the samples against a black and a white background. The sample was also tested by illumination using a narrow (Tyndall) beam light source and then visually inspected from a direction perpendicular to the light beam in order to identify undissolved solid particles.
# At the end of the specified rolling period the pH of each sample was measured and a visual observation of each sample was made using a light box as described in European Pharmacopoeia Method 2.9.20 (above), inspecting the samples against a black and a white background. The sample was also tested by illumination using a narrow (Tyndall) beam light source and then visually inspected from a direction perpendicular to the light beam in order to identify undissolved solid particles.
# These samples were visually assessed made using a light box as described in European Pharmacopoeia Method 2.9.20 (above), inspecting the samples against a black and a white background. The sample was also tested by illumination using a narrow (Tyndall) beam light source and then visually inspected from a direction perpendicular to the light beam in order to identify undissolved solid particles. The pH was also measured.
# These samples were visually assessed using a light box as described in European Pharmacopoeia Method 2.9.20 (above), inspecting the samples against a black and a white background. The sample was also tested by illumination using a narrow (Tyndall) beam light source and then visually inspected from a direction perpendicular to the light beam in order to identify undissolved solid particles. The pH was also measured.
# The diluted samples were placed on a roller bed overnight in order to reach equilibrium. The pH was also measured.
# These samples were visually assessed using a light box as described in European Pharmacopoeia method 2.9.20 (above), inspecting the samples against a black and a white background. The sample was also tested by illumination using a narrow (Tyndall) beam light source and then visually inspected from a direction perpendicular to the light beam in order to identify undissolved solid particles. […] The pH was also measured.
# [4] = Water solubility of free base; conditions: for aqueous solution formulation at therapeutic dosage levels
# [5] = Investigation 4, 3 mg/mL with 6.8 mole equivalents orthophosphoric acid (33.3 mM), roller bed room temperature ca. 19 hours, N = 1-3
compound,measurement,setting,value
"CN(C)C1CCN(C(=O)c2ccc(NC(=O)Nc3ccc(-c4nc(N5CCOCC5)nc(N5CCOCC5)n4)cc3)cc2)CC1 [1-(4-{[4-(Dimethylamino)piperidin-1-yl]carbonyl}phenyl)-3-[4-(4,6-dimorpholin-4-yl-1,3,5-triazin-2-yl)phenyl]urea]",chemically and physically stable (duration),[1],up to 3 years
same,Visual assessment,[2]; [5],Clear
same,Visual assessment,"[2]; Investigation 5, 3, 4 and 5 mg/mL in 33.3 mM acetic acid buffer pH 3.35, roller bed room temperature, 24 hour, 48 hour, 72 hour and 6 day periods",does not produce a clear solution
same,Final pH,[3]; [5],2.15 and 2.17
same,pH after dilution,"[3]; Investigation 4, orthophosphoric acid samples diluted to 0.05 mg/mL",3.47 and 3.48 and 3.49
same,pH after dilution,"[3]; Investigation 4, orthophosphoric acid samples diluted to 0.1 mg/mL",3.21 and 3.20
same,pH after dilution,"[3]; Investigation 4, orthophosphoric acid samples diluted to 0.5 mg/mL",2.64 and 2.63
same,pH Check after 6 Days,[3]; 3 mg/mL in 33.3 mM acetic acid,3.99 and 3.95 and 3.96
same,pH Check after 48 hours,[3]; 3 mg/mL in 33.3 mM acetic acid,3.89 and 3.90
same,pH Check after 6 Days,[3]; 4 mg/mL in 33.3 mM acetic acid,4.03 and 4.04
same,pH Check after 48 hours,[3]; 4 mg/mL in 33.3 mM acetic acid,3.94 and 3.95
same,pH Check after 6 Days,[3]; 5 mg/mL in 33.3 mM acetic acid,4.18 and 4.19
same,pH Check after 48 hours,[3]; 5 mg/mL in 33.3 mM acetic acid,3.99 and 4.00
same,pH,"[3]; 3 mg/mL, ca. 6.8 mole equivalents orthophosphoric acid",2.02 and 2.03 and 2.05
same,pH,"[3]; 3.5 mg/mL, ca. 5.9 mole equivalents orthophosphoric acid",2.09 and 2.07
same,water solubility,[4],insufficiently water soluble

# Source: patent US10660959B2, “Formulations of a PI3K/mTOR-inhibitor for intravenous administration” (Pfizer Inc., priority 2014, dated 2020)
